Reference: PubChem BioAssay (NCI)
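Method: 48-hour compound exposure of cells in 96-well plates, five concentrations, linear interpolation of endpoints. TGI: concentration producing complete growth inhibition.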

Assays:
Test in all cases: NCI anticancer screen, dose series, 48 h
786-0 renal = system: 786-0 renal
A498 renal = system: A498 renal
A549 NSCLC = system: A549 NSCLC
ACHN renal = system: ACHN renal
CCRF-CEM leukemia = system: CCRF-CEM leukemia
COLO 205 colon = system: COLO 205 colon
DMS 114 small cell lung = system: DMS 114 small cell lung
DMS 273 small cell lung = system: DMS 273 small cell lung
EKVX NSCLC = system: EKVX NSCLC
HCC-2998 colon = system: HCC-2998 colon
HCT-116 colon = system: HCT-116 colon
HCT-15 colon = system: HCT-15 colon
HL-60(TB) leukemia = system: HL-60(TB) leukemia
HOP-62 NSCLC = system: HOP-62 NSCLC
HT29 colon = system: HT29 colon
IGROV1 ovarian = system: IGROV1 ovarian
K-562 leukemia = system: K-562 leukemia
KM12 colon = system: KM12 colon
KM20L2 colon = system: KM20L2 colon
LXFL 529 NSCLC = system: LXFL 529 NSCLC
M14 melanoma = system: M14 melanoma
M19-MEL melanoma = system: M19-MEL melanoma
MALME-3M melanoma = system: MALME-3M melanoma
MOLT-4 leukemia = system: MOLT-4 leukemia
NCI-H226 lung = system: NCI-H226 lung
NCI-H23 lung = system: NCI-H23 lung
NCI-H460 lung = system: NCI-H460 lung
NCI-H522 lung = system: NCI-H522 lung
OVCAR-3 ovarian = system: OVCAR-3 ovarian
OVCAR-4 ovarian = system: OVCAR-4 ovarian
OVCAR-5 ovarian = system: OVCAR-5 ovarian
OVCAR-8 ovarian = system: OVCAR-8 ovarian
RPMI-8226 leukemia = system: RPMI-8226 leukemia
RXF 393 renal = system: RXF 393 renal
SF-268 CNS = system: SF-268 CNS
SF-295 CNS = system: SF-295 CNS
SF-539 CNS = system: SF-539 CNS
SK-MEL-2 melanoma = system: SK-MEL-2 melanoma
SK-MEL-28 melanoma = system: SK-MEL-28 melanoma
SK-OV-3 ovarian = system: SK-OV-3 ovarian
SN12C renal = system: SN12C renal
SNB-19 CNS = system: SNB-19 CNS
SNB-75 CNS = system: SNB-75 CNS
SR leukemia = system: SR leukemia
SW-620 colon = system: SW-620 colon
TK-10 renal = system: TK-10 renal
U251 CNS = system: U251 CNS
UACC-257 melanoma = system: UACC-257 melanoma
UACC-62 melanoma = system: UACC-62 melanoma
UO-31 renal = system: UO-31 renal

## O=C1C=C(Nc2ccc(Br)cc2)c2ccccc2C1=O
786-0 renal
  TGI: 28.3 µM
A498 renal
  TGI: 31 µM
A549 NSCLC
  TGI: 32.8 µM
ACHN renal
  TGI: 16.2 µM
CCRF-CEM leukemia
  TGI: 32.3 µM
COLO 205 colon
  TGI: 31 µM
DMS 114 small cell lung
  TGI: 18 µM
DMS 273 small cell lung
  TGI: 25.7 µM
EKVX NSCLC
  TGI: 32.5 µM
HCC-2998 colon
  TGI: 28.5 µM
HCT-116 colon
  TGI: 26.5 µM
HCT-15 colon
  TGI: 18.9 µM
HL-60(TB) leukemia
  TGI: 22.4 µM
HOP-62 NSCLC
  TGI: 30.7 µM
HT29 colon
  TGI: 34 µM
IGROV1 ovarian
  TGI: 33.2 µM
K-562 leukemia
  TGI: 34 µM
KM12 colon
  TGI: 29.6 µM
KM20L2 colon
  TGI: 39.3 µM
LXFL 529 NSCLC
  TGI: 25.4 µM
M14 melanoma
  TGI: 28.8 µM
M19-MEL melanoma
  TGI: 3.29 µM
MALME-3M melanoma
  TGI: 28.7 µM
MOLT-4 leukemia
  TGI: 30.5 µM
NCI-H226 lung
  TGI: 38.2 µM
NCI-H23 lung
  TGI: 15.3 µM
NCI-H460 lung
  TGI: 23.8 µM
NCI-H522 lung
  TGI: 25.5 µM
OVCAR-3 ovarian
  TGI: 19.7 µM
OVCAR-4 ovarian
  TGI: 6.13 µM
OVCAR-5 ovarian
  TGI: 35.3 µM
OVCAR-8 ovarian
  TGI: 29.3 µM
RPMI-8226 leukemia
  TGI: 24.9 µM
RXF 393 renal
  TGI: 30.6 µM
SF-268 CNS
  TGI: 27.6 µM
SF-295 CNS
  TGI: 29.8 µM
SF-539 CNS
  TGI: 30.3 µM
SK-MEL-2 melanoma
  TGI: 30.1 µM
SK-MEL-28 melanoma
  TGI: 31.3 µM
SK-OV-3 ovarian
  TGI: 31 µM
SN12C renal
  TGI: 29.6 µM
SNB-19 CNS
  TGI: 29.2 µM
SNB-75 CNS
  TGI: 23.3 µM
SR leukemia
  TGI: 16.5 µM
SW-620 colon
  TGI: 27.2 µM
TK-10 renal
  TGI: 33.8 µM
U251 CNS
  TGI: 16 µM
UACC-257 melanoma
  TGI: 26.5 µM
UACC-62 melanoma
  TGI: 15.3 µM
UO-31 renal
  TGI: 29.6 µM
